Entries after “also recorded” stand apart in the source; their conditions may differ.
Assays:
[1] = biological target: CYP2D6 (Homo sapiens, UniProt P10635); assay: in vitro
[2] = tested on: Guinea pigs; assay: Hypolipidemic effect in Guinea pigs model (plasma TG, cholesterol, lipoproteins); assay type: in vivo, Guinea pig; details: for effect on plasma cholesterol / effect on plasma triglycerides (TG): gavage, days 21 and 22, result in words
Experimental: • Guinea pigs (400-500 g) were obtained from Harlan (Israel) or Harlan (Netherlands). Animals were treated by gavage with Medica 16αα, Medica 16ββ and Simvastatin as indicated in 1% CMC for the specified treatment periods. During treatment period the animals were weighed and observed daily.
Non-fasted guinea pigs were anesthetized with ketamine (75 mg/kg body weight) and xylazine (6 mg/kg body weight), followed by S.C. abdominal injections of 2% lignocaine. Anesthetized animals were bled into tubes containing EDTA. Plasma chylomicrons were removed by centrifugation (20 min, 30K rpm, TST 55.5 rotor). Plasma TG was assayed by Roche/Hitachi kit. Plasma cholesterol was assayed by Roche Diagnostic's kit.
Chylomicrons-free plasma was subjected to continuous KBr-gradient centrifugation (24 h, 40K rpm, SW41 rotor), followed by fractionating gradient tubes into 0.5 ml fractions. TG, cholesterol and protein of each fraction were measured as described above. […]
Guinea pigs were treated by gavage with M16αα, M16ββ or with Simvastatin, weighed and observed daily. Plasma triglycerides (TG) and cholesterol, as well as plasma lipoproteins and their composition were examined on days 21 and 22 (as specified in the following tables) of the experiments, as described in Experimental procedures. As clearly shown by Table 3 and FIG. 1, treatment with M16αα decreases plasma triglycerides (TG).

[3] = biological target: CYP3A4 (Homo sapiens, UniProt P08684); assay: Fluorimetric CYP inhibition assay, CYP3A4 (substrates BFC, BQ, DBF)
[4] = biological target: T1, CYP2C8 (Homo sapiens, UniProt P10632); assay: biochemical
T1 sequence (P10632 1-490): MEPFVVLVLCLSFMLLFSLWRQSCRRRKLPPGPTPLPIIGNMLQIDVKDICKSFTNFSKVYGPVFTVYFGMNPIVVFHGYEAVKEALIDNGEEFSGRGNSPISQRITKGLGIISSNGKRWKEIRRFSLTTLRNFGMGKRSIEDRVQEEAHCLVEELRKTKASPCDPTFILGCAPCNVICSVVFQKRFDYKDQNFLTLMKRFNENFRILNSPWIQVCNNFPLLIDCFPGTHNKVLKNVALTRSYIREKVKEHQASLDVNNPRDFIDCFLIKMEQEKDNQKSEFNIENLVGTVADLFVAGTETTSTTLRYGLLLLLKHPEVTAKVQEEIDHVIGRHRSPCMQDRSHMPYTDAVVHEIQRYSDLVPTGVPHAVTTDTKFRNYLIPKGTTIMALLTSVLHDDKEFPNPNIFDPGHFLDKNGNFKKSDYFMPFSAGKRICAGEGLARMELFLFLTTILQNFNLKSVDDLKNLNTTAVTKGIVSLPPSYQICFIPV

[5] = biological target: CYP2C9 (Homo sapiens, UniProt P11712); assay: Fluorimetric CYP inhibition assay, CYP2C9-MFC
[6] = biological target: T2, CYP1A2 (Homo sapiens, UniProt P05177); assay: in vitro
T2 sequence (P05177 1-516): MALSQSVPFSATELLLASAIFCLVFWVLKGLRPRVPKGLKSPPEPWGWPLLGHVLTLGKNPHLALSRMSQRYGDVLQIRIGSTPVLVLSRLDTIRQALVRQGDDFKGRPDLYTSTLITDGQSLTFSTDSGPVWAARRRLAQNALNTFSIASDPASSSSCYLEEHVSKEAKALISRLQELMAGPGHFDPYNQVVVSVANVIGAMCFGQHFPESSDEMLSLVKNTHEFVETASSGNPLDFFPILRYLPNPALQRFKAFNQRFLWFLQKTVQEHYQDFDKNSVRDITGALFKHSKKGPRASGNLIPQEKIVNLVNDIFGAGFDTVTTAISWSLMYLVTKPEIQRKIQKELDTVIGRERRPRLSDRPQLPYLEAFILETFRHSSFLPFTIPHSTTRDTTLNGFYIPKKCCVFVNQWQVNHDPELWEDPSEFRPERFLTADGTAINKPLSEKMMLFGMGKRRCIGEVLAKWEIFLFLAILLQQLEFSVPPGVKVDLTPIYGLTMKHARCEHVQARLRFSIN

[7] = biological target: T3, CYP2B6 (Homo sapiens, UniProt P20813); assay: Fluorimetric CYP inhibition assay, CYP2B6-EFC
T3 sequence (P20813 1-491): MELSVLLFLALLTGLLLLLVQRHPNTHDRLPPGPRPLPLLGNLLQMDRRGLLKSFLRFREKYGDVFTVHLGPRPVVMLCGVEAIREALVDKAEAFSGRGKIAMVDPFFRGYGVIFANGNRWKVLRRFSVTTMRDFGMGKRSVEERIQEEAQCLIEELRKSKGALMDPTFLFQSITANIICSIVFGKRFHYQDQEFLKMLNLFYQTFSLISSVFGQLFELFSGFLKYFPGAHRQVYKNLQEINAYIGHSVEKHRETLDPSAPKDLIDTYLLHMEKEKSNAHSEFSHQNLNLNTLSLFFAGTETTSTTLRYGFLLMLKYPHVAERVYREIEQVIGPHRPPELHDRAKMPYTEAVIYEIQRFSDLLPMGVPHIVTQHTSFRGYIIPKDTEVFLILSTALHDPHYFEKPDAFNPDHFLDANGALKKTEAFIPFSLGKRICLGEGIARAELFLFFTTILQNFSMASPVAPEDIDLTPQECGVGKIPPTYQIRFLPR

[8] = biological target: CYP2C19 (Homo sapiens, UniProt P33261); assay: Fluorimetric CYP inhibition assay, CYP2C19-CEC
[9] = gavage 24 mg/kg/bw, 22 days, n = 10
[10] = gavage 10 mg/kgbw, 21 days, n = 12

Chain of CYP2D6 (P10635 whole entry): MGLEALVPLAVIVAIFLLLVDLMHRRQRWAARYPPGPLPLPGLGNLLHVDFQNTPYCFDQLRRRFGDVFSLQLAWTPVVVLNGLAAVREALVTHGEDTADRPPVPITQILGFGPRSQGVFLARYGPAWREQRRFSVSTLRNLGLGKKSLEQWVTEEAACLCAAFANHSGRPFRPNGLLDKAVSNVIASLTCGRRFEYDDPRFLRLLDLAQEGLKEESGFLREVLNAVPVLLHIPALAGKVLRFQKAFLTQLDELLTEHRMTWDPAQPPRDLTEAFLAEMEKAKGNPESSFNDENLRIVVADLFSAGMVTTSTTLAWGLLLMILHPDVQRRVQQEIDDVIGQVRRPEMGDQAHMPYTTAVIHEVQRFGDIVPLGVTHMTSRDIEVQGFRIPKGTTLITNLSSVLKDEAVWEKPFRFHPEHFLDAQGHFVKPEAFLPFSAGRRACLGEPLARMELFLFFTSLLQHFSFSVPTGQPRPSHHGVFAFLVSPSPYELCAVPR
Chain of CYP3A4 (P08684 whole entry): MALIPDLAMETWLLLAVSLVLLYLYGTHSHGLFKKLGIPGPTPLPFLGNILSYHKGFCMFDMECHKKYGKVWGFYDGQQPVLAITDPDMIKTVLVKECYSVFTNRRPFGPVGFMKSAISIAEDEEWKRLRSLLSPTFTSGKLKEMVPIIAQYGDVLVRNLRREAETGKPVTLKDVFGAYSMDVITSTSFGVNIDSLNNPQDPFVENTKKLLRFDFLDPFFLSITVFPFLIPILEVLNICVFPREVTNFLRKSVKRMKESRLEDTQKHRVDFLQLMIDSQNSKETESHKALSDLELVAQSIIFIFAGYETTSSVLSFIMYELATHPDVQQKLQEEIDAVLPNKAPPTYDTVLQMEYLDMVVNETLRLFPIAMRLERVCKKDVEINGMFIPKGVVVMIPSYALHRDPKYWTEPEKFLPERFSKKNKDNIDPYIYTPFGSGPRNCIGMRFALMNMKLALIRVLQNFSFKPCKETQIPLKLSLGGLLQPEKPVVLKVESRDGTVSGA
Chain of CYP2C9 (P11712 whole entry): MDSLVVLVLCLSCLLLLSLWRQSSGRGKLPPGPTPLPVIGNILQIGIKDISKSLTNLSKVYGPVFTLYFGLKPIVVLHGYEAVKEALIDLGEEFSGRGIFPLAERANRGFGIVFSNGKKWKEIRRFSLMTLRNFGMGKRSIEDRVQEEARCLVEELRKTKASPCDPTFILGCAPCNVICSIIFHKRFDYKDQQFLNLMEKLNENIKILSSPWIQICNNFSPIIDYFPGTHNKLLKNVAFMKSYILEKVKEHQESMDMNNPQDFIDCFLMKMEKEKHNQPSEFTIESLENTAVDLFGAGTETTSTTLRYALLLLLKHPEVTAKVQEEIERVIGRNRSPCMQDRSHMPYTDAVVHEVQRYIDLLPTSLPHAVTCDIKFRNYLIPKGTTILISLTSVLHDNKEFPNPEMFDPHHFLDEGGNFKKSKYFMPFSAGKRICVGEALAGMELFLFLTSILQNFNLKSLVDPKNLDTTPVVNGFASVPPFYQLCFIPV
Chain of CYP2C19 (P33261 whole entry): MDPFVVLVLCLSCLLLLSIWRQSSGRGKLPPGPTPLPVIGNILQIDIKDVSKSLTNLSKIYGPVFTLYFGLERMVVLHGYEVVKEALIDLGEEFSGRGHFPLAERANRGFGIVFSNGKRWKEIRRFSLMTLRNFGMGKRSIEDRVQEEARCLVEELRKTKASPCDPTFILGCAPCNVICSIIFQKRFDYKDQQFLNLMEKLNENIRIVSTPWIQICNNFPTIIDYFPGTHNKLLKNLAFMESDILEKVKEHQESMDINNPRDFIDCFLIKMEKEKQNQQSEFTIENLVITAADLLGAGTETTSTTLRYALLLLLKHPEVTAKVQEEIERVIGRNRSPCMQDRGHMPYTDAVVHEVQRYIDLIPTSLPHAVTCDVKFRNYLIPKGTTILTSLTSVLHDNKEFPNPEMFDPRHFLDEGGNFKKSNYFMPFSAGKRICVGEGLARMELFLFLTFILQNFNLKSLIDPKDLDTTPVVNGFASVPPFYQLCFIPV

Structure (SMILES) | inhibition at 0.05 μM ([1]; % Inhibition (set 1)) [%] | inhibition at 0.41 μM ([1]; % Inhibition (set 1)) [%] | inhibition at 1.23 μM ([1]; % Inhibition (set 1)) [%] | inhibition at 3.7 μM ([1]; % Inhibition (set 1)) [%] | inhibition at 11.11 μM ([1]; % Inhibition (set 1)) [%] | inhibition at 33.33 μM ([1]; % Inhibition (set 1)) [%] | inhibition at 100 μM ([1]; % Inhibition (set 1)) [%] | inhibition at 0.05 μM ([1]; % Inhibition (set 2)) [%] | inhibition at 0.41 μM ([1]; % Inhibition (set 2)) [%] | inhibition at 1.23 μM ([1]; % Inhibition (set 2)) [%] | inhibition at 3.7 μM ([1]; % Inhibition (set 2)) [%] | inhibition at 11.11 μM ([1]; % Inhibition (set 2)) [%] | inhibition at 33.33 μM ([1]; % Inhibition (set 2)) [%] | inhibition at 100 μM ([1]; % Inhibition (set 2)) [%] | effect on plasma cholesterol [2] | effect on plasma triglycerides (TG) [2] | IC50 [3] [µM] | IC50 [4] [µM] | IC50 [5] [µM] | inhibition at 0.05 μM ([6]; % Inhibition (set 1)) [%] | other results
CC(C)(CCCCCCCCCCC(C)(C)CC(=O)O)CC(=O)O [M16ββ, 3,3,14,14-tetramethylhexadecane-1,16-dioic acid] | 0 | 0 | 0 | 0 | 10 | 17 | 10 | 0 | 0 | 0 | 1 | 6 | 14 | 19 | small but significant decrease | clear decrease | > 100 | > 100 | > 100 | 0 | Liver/body weight % [2, 9]: 5.8 ± 0.2%; Plasma cholesterol [2, 9]: 31 ± 2.2 mg %; Weight gain [2, 9]: 173 ± 8.5 g; inhibition at 0.41 μM ([6]; % Inhibition (set 1)): 0%; inhibition at 1.23 μM ([6]; % Inhibition (set 1)): 0%; inhibition at 3.7 μM ([6]; % Inhibition (set 1)): 0%; inhibition at 11.11 μM ([6]; % Inhibition (set 1)): 4%; inhibition at 33.33 μM ([6]; % Inhibition (set 1)): 3%; inhibition at 100 μM ([6]; % Inhibition (set 1)): 1%; inhibition at 0.05 μM ([6]; % Inhibition (set 2)): 0%; inhibition at 0.41 μM ([6]; % Inhibition (set 2)): 0%; inhibition at 1.23 μM ([6]; % Inhibition (set 2)): 0%; inhibition at 3.7 μM ([6]; % Inhibition (set 2)): 0%; inhibition at 11.11 μM ([6]; % Inhibition (set 2)): 0%; inhibition at 33.33 μM ([6]; % Inhibition (set 2)): 1%; inhibition at 100 μM ([6]; % Inhibition (set 2)): 4%; IC50 [7]: > 100 µM; IC50 [8]: > 100 µM
CC(C)(CCCCCCCCCCCCC(C)(C)C(=O)O)C(=O)O [M16αα, 2,2,15,15-tetramethylhexadecane-1,16-dioic acid] | 0 | 0 | 0 | 0 | 3 | 11 | 7 | 0 | 0 | 0 | 0 | 2 | 15 | 0 | pronounced decrease | reduces; also recorded: decreases | > 100 | > 100 | > 100 | 0 | Liver/body weight % [2, 10]: 6.3 ± 0.1%; Weight gain [2, 10]: 201 ± 8 g; effect on LDL-cholesterol levels ([2]; lipoprotein profile, FIG. 2, result in words): reduces; inhibition at 0.41 μM ([6]; % Inhibition (set 1)): 6%; inhibition at 1.23 μM ([6]; % Inhibition (set 1)): 0%; inhibition at 3.7 μM ([6]; % Inhibition (set 1)): 9%; inhibition at 11.11 μM ([6]; % Inhibition (set 1)): 5%; inhibition at 33.33 μM ([6]; % Inhibition (set 1)): 7%; inhibition at 100 μM ([6]; % Inhibition (set 1)): 8%; inhibition at 0.05 μM ([6]; % Inhibition (set 2)): 0%; inhibition at 0.41 μM ([6]; % Inhibition (set 2)): 3%; inhibition at 1.23 μM ([6]; % Inhibition (set 2)): 1%; inhibition at 3.7 μM ([6]; % Inhibition (set 2)): 5%; inhibition at 11.11 μM ([6]; % Inhibition (set 2)): 6%; inhibition at 33.33 μM ([6]; % Inhibition (set 2)): 4%; inhibition at 100 μM ([6]; % Inhibition (set 2)): 9%; IC50 [7]: > 100 µM; IC50 [8]: 46 µM

— patent publication US20100240683A1, “COMBINATION THERAPY, COMPOSITION AND METHODS FOR THE TREATMENT OF CARDIOVASCULAR DISORDERS” (Syndromex Ltd., priority 2007, published 2010)
